For 8 compounds, TGI and GI50 results are on record in PubChem BioAssay (NCI).

Experiment in all cases: growth of human tumour cells (NCI), 48 h
Test [1] has as its system 786-0 renal.
For test [2], the system named is NCI/ADR-RES ovarian.
For test [3], the system named is OVCAR-3 ovarian.
The subject of test [4] is SK-MEL-28 melanoma.
The test system of test [5] is HCT-116 colon.
Test [6] deals with HOP-62 NSCLC.
In test [7] the test system is UO-31 renal.
The test system of test [8] is HCT-15 colon.
Test [9] has as its system M14 melanoma.
Test [10] relates to SNB-75 CNS.

Values joined by “and” are separate entries in the source; they are usually repeats but may differ in a detail not shown here. Equal values may be shown once.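 All cell lines were grown in 96-well plates and treated with compound for 48 hours. GI50: concentration for 50% inhibition of growth. TGI: concentration producing complete growth inhibition.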

With `COc1cccc2[nH]c(-c3ccccn3)nc12`, the TGI in test [1] is over 100 µM; in test [2] it was 73.8 µM; in test [3], over 100 µM; in test [4], over 100 µM; in [5] it was over 100 µM; in [6], over 100 µM. For the same compound, the TGI in test [7], in test [8], in [9] and in [10] was over 100 µM each time.
For `CCCCn1sc(=O)n(Cc2ccc(CNC(=O)OCc3ccc4c(Br)cc(Br)c(O)c4n3)cc2)c1=O`, the GI50 in test [1] is 1.58 µM; in [2], 0.325 µM; in [3], 0.292 µM; in test [5], 0.344 µM; in test [6], 0.749 µM; in [7], 1.05 µM. The results for the GI50 in test [8], in test [9] and in [10] were 0.468 µM, 0.37 µM and 0.499 µM, respectively. Also, the TGI in test [1] is over 100 µM; in test [2] it was over 100 µM; in test [3], 0.8 µM; in test [4], over 100 µM; in test [5], over 100 µM; in test [6], over 100 µM. The TGI in test [7], in test [8], in [9] and in test [10] was over 100 µM throughout.
`Nc1nnc(Cn2c(-c3ccccc3)nc3ccc(Br)cc3c2=O)s1`: the GI50 in test [1] is 58.7 µM; in test [2] it was 41.2 µM; in test [3] it was 40 µM; in [4], over 100 µM; in test [5], 13.6 µM; in test [6], 36.8 µM. For the same compound, the GI50 was over 100 µM in test [7], 31.6 µM in [8], 49 µM in test [9] and over 100 µM in test [10]. The TGI was over 100 µM in [1]; over 100 µM in test [2]; over 100 µM in test [3]; over 100 µM in test [4]; 50.3 µM in [5]; over 100 µM in test [6]. Besides, the TGI in test [7], in test [8], in [9] and in [10] was over 100 µM throughout.
For `CC1=C[S+](c2ccccc2)c2cccc3cc4ccccc4c1c23` (stereo not given), the GI50 is 0.379 µM in test [1]; 3.87 µM in test [2]; 0.323 µM in [3]; 0.511 µM in [4]; 0.0655 µM in test [5]; 0.486 µM in [6]. Further, the GI50 in test [7] was 0.312 µM; in test [8] it was 0.378 µM; in test [9], 0.189 µM; in test [10], 0.452 µM. The TGI in test [2] was over 55.3 µM; in [3], 1.44 µM; in test [4], 1.89 µM; in test [7], 7.64 µM; in test [8], 8.44 µM; in test [10], 1.55 µM.
On to `COc1ccc(-c2cc(=O)c3c(O)cc(C)cc3o2)cc1OC`, for which the TGI in test [1], in test [2], in [3], in [4], in test [5] and in [6] was over 100 µM throughout. For the same compound, the TGI in [7], in test [8], in [9] and in test [10] was over 100 µM throughout.
Consider `O=[N+]([O-])c1ccc2ncccc2c1Cl`, for which the GI50 in test [1] is 3.28 µM; in test [2], 3.92 µM; in test [3], 2.77 µM; in [4], 6.29 µM; in test [5], 1.57 µM; in [6], 5.64 µM. The GI50 was 5.02 µM in [7], 3.43 µM in [8], 3.01 µM in [9] and 4.67 µM in test [10]. Besides, the TGI was 20.4 µM in test [1]; over 100 µM in test [2]; 6.99 µM in [3]; 20.8 µM in [4]; 7.23 µM in test [5]; over 100 µM in test [6]. For the same compound, the TGI in test [7] was over 100 µM; in test [8], 14.4 µM; in test [9], 11.5 µM; in [10], over 100 µM.
For the compound `O=C(O)C1(Cc2cccc(Nc3nccs3)n2)CCC(Oc2cccc(Cl)c2F)CC1` (stereo not given), the GI50 is 15.5 µM in test [1]; 3.48 µM in test [2]; 13.3 µM in [3]; 21.2 µM in test [4]; 0.64 µM in test [5]; 6.77 µM in test [6]. In addition, the GI50 in test [7] was 16.3 µM; in test [8], 3.34 µM; in test [9], 2.96 µM; in [10], 11 µM. Moreover, the TGI in test [1] is 40.3 µM; in [2], over 65.4 µM; in test [3], 36.4 µM; in [4] it was over 65.2 µM; in [5] it was 30.5 µM; in [6], 56.2 µM. The TGI in test [7] came to 79.8 µM; in [8], 25.2 µM; in [9], 30.2 µM; in [10] it was 62.2 µM.
Take `Cc1c(NC(=O)OC[C@@H]2COCCN2)cn2ncnc(Nc3ccc4c(cnn4Cc4cccc(F)c4)c3)c12`: the GI50 was 8.46 µM and 6.1 µM in test [1]; > 10 µM and 13.1 µM in test [2]; > 10 µM and 6.66 µM in [3]; > 10 µM and 7.04 µM in test [4]; 7.82 µM and 5.22 µM in test [5]; > 10 µM and 11.5 µM in [6]. Moreover, the GI50 was 1.25 µM and 1.55 µM in test [7]; 5.81 µM and 6.14 µM in test [8]; 9.45 µM and 4.41 µM in test [9]; 8 µM and 7.09 µM in [10]. The TGI in test [1] was > 10 µM and 24.1 µM; in [2], > 10 µM and 33.5 µM; in [3] it was > 10 µM and 21.5 µM; in test [4], > 10 µM and 21.4 µM; in [5], > 10 µM and 18.7 µM; in test [6], > 10 µM and 24.9 µM. In addition, the TGI was > 10 µM and 16.5 µM in test [7]; > 10 µM and 21.4 µM in [8]; > 10 µM and 16.3 µM in test [9]; > 10 µM and 30.9 µM in [10].
